The values below come from paper PMC7536148, “Interactions of zearalanone, α-zearalanol, β-zearalanol, zearalenone-14-sulfate, and zearalenone-14-glucoside with serum albumin” (Mycotoxin Research, 2020).

SMILES strings stand for the structures. Where “and” joins values, the source holds several entries; their conditions need not be identical. Equal entries are not always repeated.

The subject of one series is CaCo-2 cells. Details: method as in Cirlini et al. 2016. As to conditions: ref Cirlini et al. 2016; cited from earlier work.
The subject of series [1] is human, bovine, porcine, and rat serum albumins. Briefly: Fluorescence quenching, statements on all albumins tested together. The format is binding. As to conditions: albumins 2 μmol/L, mycotoxin 0-10 μmol/L, PBS, λex = 295 nm. As to the method: (§1) Fluorescence spectroscopic measurements were carried out employing a Hitachi F-4500 fluorescence spectrophotometer (Hitachi, Tokyo, Japan) to investigate the effect of increasing mycotoxin concentrations on the fluorescence signal of albumins as well as on the emission spectrum of warfarin-HSA complex. Our studies were executed in phosphate-buffered saline (PBS, pH 7.4; 8.00 g/L NaCl, 0.20 g/L KCl, 1.81 g/L Na2HPO4 × 2H2O, 0.24 g/L KH2PO4) at room temperature, in the presence of air.
(§2) For spectral correction of fluorescence emission intensities, absorption spectra of mycotoxins were also recorded applying a Jasco-V730 spectrophotometer (Jasco, Tokyo, Japan). The inner-filter effect of mycotoxins was corrected as described previously (Hu and Liu [2015]; Faisal et al. [2018]):1 Icor=Iobs×e^Aex+Aem/2 where Icor and Iobs indicate the corrected and observed fluorescence emission intensities, respectively. Aex and Aem denote the absorbance of mycotoxins at the excitation and emission wavelengths used, respectively.
To investigate the stability of mycotoxin-albumin complexes, mycotoxin-induced quenching effects on the intrinsic fluorescence of albumins were tested. The emission signal of albumins (2 μmol/L; λex = 295 nm; […]) were measured in the presence of increasing concentrations of mycotoxins (0.0, 1.0, 2.0, 3.0, 4.0, 5.0, 6.0, 7.0, 8.0, 9.0, and 10.0 μmol/L). […]

The next series has as its target T1, warfarin-HSA complex (Homo sapiens, UniProt P02768).
T1 construct: purchased Sigma-Aldrich
Briefly: Effect of mycotoxins on warfarin-HSA interaction (warfarin fluorescence). Particulars: warfarin 1 μmol/L, HSA 3.5 μmol/L, mycotoxin 0-15 μmol/L, PBS pH 7.4, λex = 317 nm. The format is binding. As to the method: as §1, §2
To test the effects of ZEN metabolites on warfarin-HSA interaction, our previously reported method was applied (Faisal et al. [2018]; Fliszár-Nyúl et al. [2019]). In this experiment, the fluorescence emission signal of warfarin (1 μmol/L; λex = 317 nm, λem = 379 nm) was examined in the presence of HSA (3.5 μmol/L) without and with mycotoxins (0, 1, 2, 3, 4, 5, 6, 8, 10, and 15 μmol/L) in PBS (pH 7.4). Under these conditions, approximately 70% of warfarin is albumin-bound.

On the set-up of series [2]: method as in Sun et al. 2019. As to conditions: rats, ref Sun et al. 2019; cited from earlier work.
A further series deals with T2, HSA (Homo sapiens, UniProt P02768).
T2 construct: purchased Daicel Chiralpak HSA, 50 × 3.0 mm, 5 μm
T2 sequence (P02768 25-609): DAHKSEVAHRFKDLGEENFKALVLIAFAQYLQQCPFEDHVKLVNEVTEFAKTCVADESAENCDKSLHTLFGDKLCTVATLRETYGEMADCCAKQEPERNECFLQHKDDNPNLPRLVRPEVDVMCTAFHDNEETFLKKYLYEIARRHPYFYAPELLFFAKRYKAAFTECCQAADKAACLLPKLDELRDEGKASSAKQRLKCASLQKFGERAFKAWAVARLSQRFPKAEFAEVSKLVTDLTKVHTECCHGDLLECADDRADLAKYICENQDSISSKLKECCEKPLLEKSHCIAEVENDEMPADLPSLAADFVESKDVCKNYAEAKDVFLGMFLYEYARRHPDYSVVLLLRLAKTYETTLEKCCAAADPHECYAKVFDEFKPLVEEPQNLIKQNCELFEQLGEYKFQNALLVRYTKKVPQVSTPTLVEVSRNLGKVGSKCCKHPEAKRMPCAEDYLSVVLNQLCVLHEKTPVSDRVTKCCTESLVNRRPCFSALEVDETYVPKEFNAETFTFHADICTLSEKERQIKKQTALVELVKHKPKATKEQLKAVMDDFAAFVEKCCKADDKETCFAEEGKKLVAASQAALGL
As to the kind of experiment: High-performance affinity chromatography on HSA-coated column. Particulars: Chiralpak HSA column, isopropanol / 0.01 mol/L ammonium acetate pH 7.0 (15:85 v/v%), 0.5 mL/min, room temperature. The format is binding. As to the method: HPAC was performed with a HSA-coated column (Faisal et al. [2018]). The HPLC system (Jasco, Tokyo, Japan) used for the analysis included an autosampler (AS-4050), a binary pump (PU-4180), and a diode-array detector (MD-4017). A 5-μL volume of samples (ZAN: 200 μmol/L; ZEN, α-ZAL, β-ZAL, and Z14S: 100 μmol/L; Z14G: 50 μmol/L) was driven through a pre-column filter (Waters, Milford, MA, USA) linked to an immobilized HSA-coated HPAC column (Chiralpak® HSA, 50 × 3.0 mm, 5 μm; Daicel, Tokyo, Japan). The isocratic elution was performed with 0.5-mL/min flow rate at room temperature. The mobile phase contained isopropanol (HPLC grade; VWR, Debrecen, Hungary) and 0.01 mol/L pH 7.0 ammonium acetate buffer (15:85 v/v%). Mycotoxins were detected at 235 nm, and chromatograms were evaluated with ChromNAV software.

The conditions of series [3]: pigs, cited from earlier work.

T1 sequence (P02768 25-609, one chain of several): as the sequence (P02768 25-609) above

`C[C@H]1CCCC(=O)CCC/C=C/c2cc(O[C@@H]3O[C@H](CO)[C@@H](O)[C@H](O)[C@H]3O)cc(O)c2C(=O)O1` [Z14G, Zearalenone-14-O-β-D-glucoside]: the “absorption in CaCo-2 cell model” value in the series with CaCo-2 cells is listed as “considerably lower compared with ZEN”. Also, in series [1], the “effect on the emission signals of albumins (quenching)” value is “did not affect the emission signals of albumins”. Also, the “effect on fluorescence emission signal of warfarin at 379 nm (warfarin-HSA interaction)” value at warfarin-HSA complex was “did not affect the fluorescence at 379 nm”. Besides, the “plasma concentrations after oral administration” value in series [2] is “low plasma concentrations”. Besides, on HSA, the “retention time (tR) from HSA-HPAC affinity column” value is 1.7 min and 1.650 min. Moreover, the “fraction of the orally administered compound absorbed” value in series [3] (oral, ref Catteuw et al. 2019) is reported as “approximately 61%”. The “intestinal hydrolysis to ZEN after oral administration” value in series [3] (ref Binder et al. 2017) is recorded as “complete intestinal hydrolysis to ZEN”.
